The record followed here is patent US12114655B2, “Agricultural compositions and methods of use thereof” (Valent U.S.A. LLC, priority 2019, dated 2024).

The assay concerns corn. As to the kind of experiment: Spray chamber treatment of corn plots grown to 12 inches: efficacy of clethodim with or without mannitol or sorbitol. Format: in vivo. The conditions noted are these: 14 days after treatment; clethodim 55.4 g/HA, mannitol or sorbitol 6800 g/HA where present; all compositions with 1% v/v Agridex and 0.25% v/v Induce; corn 12 inches in height. On the procedure: 4 trials were conducted on the efficacy of clethodim with or without mannitol or sorbitol. Specifically, 4 plots of corn were grown to 12 inches in height. These plots were placed in a spray chamber for treatment. All compositions contained 1% v/v of Agridex® and 0.25% v/v of Induce®. Treatments and results can be found in Table 1, below.

Regarding `CCSC(C)CC1CC(=O)C(/C(CC)=N/OC/C=C/Cl)=C(O)C1` (stereo not shown) [Clethodim, clethodim], the “Days After Treatment (% control) 14” value amounted to 20.8 % control.
